The format of data set [1] is binding. Conditions: FIG. 1; 18 hour incubation in 10% BSA+10 mM guanidinium chloride. An excerpt: In this example, illustrated are unexpected beneficial properties of the composition of the invention, including but not limited to, one or more improved biophysical properties. Such one or more unexpected beneficial properties of a composition of the invention may comprise an increase in stability. An increase in stability may comprise any one or more of resistance to chemical denaturation, resistance to proteolytic degradation, improved retention to a substrate (e.g., resistance to being competed off a substrate to which it is bound, such as by proteins or other biomolecules found in body tissues). Thus, to ascertain a beneficial property of a composition of the invention, it is compared to the properties of a component of the composition-namely, a substrate-binding peptide by itself (e.g., without fatty acid covalently coupled thereto). An assay was developed that, from our direct comparisons (see, e.g., discussion of FIG. 2 below, and Example 7 herein), mimicked the effect of incubation of substrate-binding peptide with human plasma on stability of binding of a substrate-binding peptide to its substrate. The assay utilized incubations in the presence of 10% bovine serum album (BSA) with 10 mM guanidinium chloride. The high BSA concentration mimics the elevated albumin content of human plasma, and the guanidinium chloride is used to compete with any charged interactions involved in binding of the substrate-binding peptide to its substrate.
In this assay, two immunoassay plates were prepared for a “side-by-side” comparison of binding of a test sample (substrate-binding peptide or composition of the invention) to its substrate with or without the presence of 10% BSA with 10 mM guanidinium chloride. The wells of each 96-well polypropylene plate were incubated with 350 μl BSA 1% in PBS for 30 minutes at 20° C. with 500 rpm shaking. To each well was added one acetone-cleaned 3/32″ 316LVM stainless steel bead, followed by addition of dilutions in PBS of the test sample in a range of concentrations starting from 10 μM. Final volume in each well was 200 μl. The plates were incubated for 1 hour at 20° C. with 500 rpm shaking to allow for the binding to occur. The beads were washed 3 times with 250 μl PBS using a plate washer. […]
In the immunoassay for detecting binding without the presence of 10% BSA with 10 mM guanidinium chloride, added to each well was 200 μl of streptavidin AP (AP is alkaline phosphatase) at 1/200 in TBS+1% BSA. […] When color has developed, each well was read at OD405 nm in endpoint mode using a plate reader. […] When color has developed, the wells were read at OD405 nm in endpoint mode using a plate reader. […]

Data set [2] can be described thus: Critical micelle concentration (CMC) assay with methyl orange. The class given is physicochemical. Conditions: pH 7 PBS, A484. Here is the method:
Formation of a composition of the invention, and evidence of macromolecular network formation, may be monitored or quantified by any means known in the art. In this example, macromolecular formation was detected using a standard assay for determining critical micelle concentration (“CMC”). In this assay, a solution containing the composition of the invention (in a range of concentrations in pH 7 phosphate buffered saline (“PBS”)) was mixed with a solution of methyl orange (0.04 mM in PBS), and the absorbance of the mixture was measured at 484 nm (A484). CMC is the concentration at which a sharp decrease in absorbance at A484 is observed, a change in the optical properties of methyl orange when trapped in a hydrophobic phase, such as caused by self-association as a macromolecular network (Table 7, “CMC”). Also included in this assay were an assay control peptide having an amino acid sequence of SEQ ID NO:122 (Table 7, “Control”), and compound 119 (a PEGylated peptide, the peptide having an amino acid sequence of SEQ ID NO:122, as described in more detail in Example 6 herein).

A short description of data set [3]: Stent flow model (in vitro model for in vivo stability on a stent). It counts as binding. Conditions: radiolabelled.
Experimental: In this example, an in vitro model for in vivo stability on a medical device comprising a stent was performed. The stent flow model included a “circulatory system” comprising a peristaltic pump and clear silicone tubing into which is placed a stent (8 mm, stainless steel) coated with a composition according to the invention. Coating of the stents was accomplished by incubating the stents with radiolabelled composition 132 (specific activity 2,400 cpm/pmole at 20 μM in PBS) for 1 hour at 20° C., followed by extensive washing with buffer. […] In another variation of the stent flow model, 10% BSA+10 mM guanidinium chloride was circulated through the circulatory system at a flow rate of 5 ml/min for 18 hours at 37° C. After circulation in the respective variations of the stent flow model, the coated stents were then counted for radioactivity. To serve as an assay “control”, some coated stents were not placed in the stent flow model, but rather counted for radioactive counts to provide a reference from which percent retention could be calculated for those coated stents included in the stent flow model.
Data set [4] is described as follows: Vancomycin loading onto titanium bead, HPLC of HCl eluate. It counts as binding. The note with it: components mixed with vancomycin, 30 mins at 20° C., washed three times. Here is the method: The experimental procedure used for the embodiments described above was as follows. […] All three components were mixed and then applied to the metal bead. […] All three components were mixed and then applied to the metal bead. […] The mixtures were applied to the metal beads and incubated for 30 mins at 20° C. with 700 rpm shaking. The beads were washed three times with 350ul PBS. Beads were analyzed as follows: 200 ul of 100 mM HCl was added to each bead and incubated for 30 mins at 20° C. with 1,000 rpm shaking. The eluate from each bead was analyzed by HPLC using Phenomenex Luna 3 um column, 50×4.60 mm. Output was compared to a standard curve for vancomycin to determine the amount of vancomycin retained onto the metal bead.

The values below come from US7972615B2, “Peptide compositions for coating metal medical devices with vancomycin” (Affinergy, Inc., priority 2008, dated 2011).

Square brackets hold non-standard residues; d marks the D form. Ends that are not written are not given here. miniPeg = miniPEG linker unit; Aun = NCCCCCCCCCCC(=O)O

As to “119: Fmoc-NH-(PEG)27-CO2H covalently coupled to a peptide having the amino acid sequence of SEQ ID NO:122 (PEGylated peptide) (SSHRTNHKKNNPKKKNKTRGSSGK; not fully specified (N-terminus); also: Fmoc-NH-(PEG)27-CO2H covalently coupled, site not given here) [Compound 119, reference compound]”, the “retention of binding of substrate-binding peptide component to its substrate, compared to substrate-binding peptide alone (SEQ ID NO: 122)” value in data set [1] was “failed to promote retention”.

For the substance “120: amino acid sequence YWAWAYAW (SEQ ID NO:129) covalently coupled to a peptide having the amino acid sequence of SEQ ID NO:122 (YWAWAYAWSSHRTNHKKNNPKKKNKTRGSSGK) [Compound 120, reference compound]”, the “retention of binding of substrate-binding peptide component to its substrate, compared to substrate-binding peptide alone (SEQ ID NO: 122)” value in data set [1] is reported as “failed to promote retention”.

Consider “AUD-AUD-AUD-AUD-AUD-AUD-SEQ ID NO: 122 ([Aun][Aun][Aun][Aun][Aun][Aun]SSHRTNHKKNNPKKKNKTRGSSGK) [Compound 130]”, for which the CMC in data set [2] is 0.041 µM.

As for “AUD-AUD-AUD-AUD-SEQ ID NO: 122 ([Aun][Aun][Aun][Aun]SSHRTNHKKNNPKKKNKTRGSSGK) [Compound 122]”, the “retention of binding of substrate-binding peptide component to its substrate, compared to substrate-binding peptide alone (SEQ ID NO: 122)” value in data set [1] is reported as “significantly improved retention”.

As for “AUD-AUD-K-AUD-AUD-AUD-AUD-SEQ ID NO: 122 ([Aun][Aun]K[Aun][Aun][Aun][Aun]SSHRTNHKKNNPKKKNKTRGSSGK) [Compound 123]”, the “retention of binding of substrate-binding peptide component to its substrate, compared to substrate-binding peptide alone (SEQ ID NO: 122)” value in data set [1] was “significantly improved retention”.

Regarding “Ac-Y-AUD-AUD-AUD-AUD-AUD-AUD-SEQ ID NO: 122 (Ac-Y[Aun][Aun][Aun][Aun][Aun][Aun]SSHRTNHKKNNPKKKNKTRGSSGK) [Compound 132]”, the “composition remained bound to the coated stents” value in data set [3] (10% BSA+10 mM guanidinium chloride circulated at 5 ml/min for 18 hours at 37° C.) and in data set [3] (human plasma circulated at 5 ml/min for 7 days at 37° C.) was “over 90%” each time.

For “MA-Ahx-SSCLIDIYGVCHN FDAY-miniPeg-miniPeg-HKKNNPKKKNKTRGSSK(Biotin) [SEQ ID NO: 164]”, the “Vancomycin Load” value in data set [4] came out at 278 pmol/cm2.

For the substance “SSSCLIDMYGVCHNFDGAYDSSRG-miniPeg-miniPeg-SSHRTNHKKNNPKKKNKTRGSSGK (SSSCLIDMYGVCHNFDGAYDSSRG[miniPeg][miniPeg]SSHRTNHKKNNPKKKNKTRGSSGK; cysteine pairing not given here) [SEQ ID NO: 163]”, the “Vancomycin Load” value in data set [4] is on record as 54 pmol/cm2.
